Laboratory results reported in US9719110B2, “Method of increasing production of amorpha-4,11-diene and method of increasing production of natural rubber” (SUMITOMO RUBBER INDUSTRIES, LTD., priority 2014, dated 2017).

Key:
[1] = tested on: 35S:ADS A. thaliana; assay: amorpha-4,11-diene production in 35S:ADS A. thaliana seedlings cultured in MS liquid medium with inhibitor (GC-MS); assay type: in vivo, Arabidopsis thaliana
Experimental: The following experiment was performed to confirm that the attachment of the enzyme inhibitor squalestatin (squalene synthase inhibitor) had the effect of increasing production of amorpha-4,11-diene on 35S:ADS A. thaliana, which is an Arabidopsis thaliana into which had been introduced a gene encoding amorphadiene synthase (ADS).
The 35S:ADS A. thaliana is Arabidopsis thaliana in which a gene encoding ADS derived from Artemisia annua is overexpressed. It is properly managed as 433 7-5 line in Cell Technology Laboratory, Division of Advanced Science and Biotechnology, Graduate School of Engineering, Osaka University.
In order to sterilize 35S:ADS A. thaliana seeds, the seeds were immersed in a seed sterilization water (0.25% sodium hypochlorite solution, 1% SDS) for 20 minutes and then washed with sterilized water four times.
The seeds were plated on MS agar medium (Murashige and Skoog medium, including 4.4 g/L vitamins, 10 g/L sucrose, and 10 g/L agar) set to a pH of 5.8.
The plating was followed by vernalization for two or more days at 4° C. Thereafter, the seeds were cultured at 23° C. under long day conditions (16 hours light/8 hours dark) for seven days.
The resulting Arabidopsis thaliana seedlings were transferred to MS liquid media supplemented with squalestatin (SQS inhibitor) at squalestatin concentrations of 0, 1, 3, 5, 10, and 15 μmol/L, followed by further culturing for seven days with shaking at 23° C. under long day conditions (16 hours light/8 hours dark).
Amorpha-4,11-diene was extracted from the Arabidopsis thaliana plants by the following procedure. About 100 mg (wet weight) of Arabidopsis thaliana plants was placed in a mortar, to which was added about 5 mL of n-hexane. After 100 μL of a n-tetradecane solution was added as an internal standard, the mixture was subjected to grinding and extraction. The extract was once recovered, and the residue was combined with another 5 mL of fresh n-hexane, followed by grinding and extraction. The extract from the second extraction was combined with that from the first extraction. This cycle of operation was repeated twice. The resulting extract was passed through an anhydrous sodium sulfate column.
The eluate from the column was concentrated under reduced pressure to about 1 mL using a rotary evaporator, and then dried to a solid with a nitrogen blowing concentrator.
The dried solid was finally combined with 1 mL of n-hexane to prepare a sample for GC-MS analysis.
The GC-MS analysis was performed with a JMS-SUN200 mass spectrometer (JEOL) and a gas chromatograph (6890 series GC system: Agilent Technologies). […]
Instead of squalene synthase (SQS), squalene epoxidase (SQE), which is located one step downstream of SQS, was inhibited, and then the effect of increasing production of amorpha-4,11-diene was evaluated. […]

[2] = tested on: Taraxacum koksaghyz; assay: natural rubber production in Taraxacum koksaghyz sprayed with inhibitor solution (rubber dry weight); assay type: in vivo
Experimental: The following experiment was performed to confirm that the attachment of the enzyme inhibitor squalestatin (squalene synthase inhibitor) to the rubber-producing plant Taraxacum koksaghyz had the effect of increasing production of natural rubber.
Taraxacum koksaghyz seeds were vernalized for two or more days at 4° C. and then planted in soil.
After planted in soil, the seeds were grown at 25° C. under 12 h light/12 h dark conditions for five months.
Squalestatin was dissolved at a concentration of 10 μmol/L in 0.1% dimethyl sulfoxide (DMSO) to prepare a squalestatin solution. Two of the thus grown Taraxacum koksaghyz plants were each sprayed with 50 mL of the squalestatin solution once a day for four days using a spray.
As a comparative example, another two Taraxacum koksaghyz individuals were sprayed with 50 mL of a 0.1% dimethyl sulfoxide (DMSO) solution without squalestatin once a day for four days using a spray.
On day 5 after initiation of the treatment, latex was recovered from the Taraxacum koksaghyz roots and immersed in ethanol for five hours to solidify natural rubber.
The solidified natural rubber was dried at room temperature for three days. Thereafter, the dry weight was measured, and the results were compared.

SMILES | amorpha-4,11-diene amount relative to treatment with the same concentration of squalestatin ([1]; 5 μmol/L) | increase in the production of amorpha-4,11-diene ([1]; terbinafine 1, 3 and 5 μmol/L, same procedure as Example 1) | accumulation of amorpha-4,11-diene ([1]; treatment with 5 μmol/L) | Rubber dry weight ([2]; 10 μmol/L in 0.1% DMSO, 50 mL sprayed once a day for four days, latex from roots on day 5, average of two individuals) [mg] | increase in amount of natural rubber recovered versus plants not treated with squalestatin ([2]; 10 μmol/L, sprayed once a day for four days) [times] | amount of amorpha-4,11-diene inside Arabidopsis thaliana plants ([1]; treatment with 3 μmol/L or more of squalestatin, seven-day shake culture, FIG. 2)
CN(C/C=C/C#CC(C)(C)C)Cc1cccc2ccccc12 [terbinafine] | a tenth or less | very little increase | about 0.004 μg gFW^-1 | – | – | –
C=C(CC[C@]12O[C@H](C(=O)O)[C@@](O)(C(=O)O)[C@](C(=O)O)(O1)[C@H](OC(=O)/C=C/[C@@H](C)C[C@@H](C)CC)[C@H]2O)[C@@H](OC(C)=O)[C@H](C)Cc1ccccc1 [squalestatin] | – | – | – | 4.2 | 2.5 | increase
